Consider 3 substances from US8580919B2, “Polymer conjugates of GLP-1” (Nektar Therapeutics, priority 2005, dated 2013).

One data set relates to diabetic db/db mice. Briefly: In-vivo study of blood-glucose lowering effects, subcutaneous dose, diabetic db/db mice (Example 8). Also noted: species or system mouse. The following applies: for blood glucose-lowering effect: single SC dose, FIG. 13. As to the method:
Male diabetic mice (BKS.Cg-+Lepr db/+Lepr db/01aHsd) were purchased from Harlan Laboratories, Ltd. (Jerusalem, Israel). The 8-9 week old animals (30-40 gm) were placed in mouse cages (two animals per cage), and allowed at least 48 hours of acclimatization before the start of the study.
The study was divided into two phases: a feasibility phase and an evaluation phase.
In carrying out the feasibility phase, several groups of mice were used wherein four mice were used in each group. Data on the baseline glucose levels were gathered for each mouse for 2-3 days prior to drug dosing. This was performed to identify any outliers in the group of animals. On the day of treatment (Day 0) each animal was weighed. A time 0 day blood sample (5 to 10 μL) was collected from the tail vein. The glucose level (mg/dL) was measured using a glucose analyzer. Each animal was then dosed subcutaneously (SC) below the skin on the back. […] The animals were then allowed to return into their cages. Blood samples of 5 to 10 μL (<0.5% of 2 mL blood volume for a 35 g mouse) were removed through a needle prick/capillary tube at the following time points: −3, −2, −1, 0, 0.04, 0.16, 0.33, 1.0, 1.16 days. Each collected blood sample was tested for its glucose level. At the end of the study, the animals were humanely euthanized by carbon-dioxide asphyxiation.
In carrying out the evaluation phase, eight mice were used in each group. Data on the baseline glucose levels were gathered for each mouse three days prior to drug dosing. On the day of treatment (Day 0) each animal was weighed. A time 0 day blood sample (5 to 10 μL) was collected from the tail vein. The glucose level (mg/dL) was measured using a glucose analyzer. Each animal was then dosed subcutaneously (SC) below the skin on the back. […] The animals were then allowed to return into their cages. Blood samples of 5 to 10 μL (<0.5% of 2 mL blood volume for a 35 g mouse) were removed through a needle prick/capillary tube at the following time points: −3, −2, −1, 0, 0.04, 0.16, 0.33, 0.5, 1, 2, 3, 6 days. Each collected blood sample was for its glucose level. […]

Data set [1] is described as follows: Lability of the conjugate on attempted further purification (Example 23). It is filed as physicochemical. The following applies: when attempting to further purify the conjugate. The text has this:
The conjugate rapidly hydrolyzed to native GLP-1 and a GLP-1 derivative resulting from an intramolecular ring closure reaction due to reaction at the carbamate carbonyl by the imidazolyl nitrogen of the N-terminal histidine of GLP-1. The modified GLP-1 thereby released is shown below. Further purification was not pursued.

Ends that are not written are not given here.

Consider “G2PEG2Fmoc20K-Lys-GLP-1: G2PEG2Fmoc20k-NHS covalently and releasably attached to a lysine position of GLP-1 (HAEGTFTSDVSSYLEGQAAKEFIAWLVKGRG; also: releasable G2PEG2Fmoc 20 kDa PEG on a lysine, position not given here; UniProt P01275 98-128, looked up)”, for which, in the data set on diabetic db/db mice, the blood glucose-lowering effect result is listed as “confirmed”. “G2PEG2Fmoc40K-Lys-GLP-1: G2PEG2Fmoc40k-NHS covalently and releasably attached to a lysine position of GLP-1 (HAEGTFTSDVSSYLEGQAAKEFIAWLVKGRG; also: releasable G2PEG2Fmoc 40 kDa PEG on a lysine, position not given here; UniProt P01275 98-128, looked up)”: in the data set on diabetic db/db mice (SC 420 μg), the “PD effect of 40 kilodalton PEG conjugate compared to 20 kilodalton PEG conjugate” value was “small but extended PD effect”. Further, in the data set on diabetic db/db mice, the blood glucose-lowering effect entry is reported as “confirmed”. With “N-terminal GLP-1 conjugate prepared by reaction with an mPEG-SBC reagent: counterpart N-terminal GLP-1 conjugate prepared by reaction with an mPEG-SBC reagent”, the “stability of the conjugate” value in data set [1] was “extremely labile”.
